Consider seven compounds from PMC3124571 (Biochemical pharmacology, 2011).

Like-named read-outs stand apart in the source and are kept apart here.

In general, IC50 refers to the concentration needed to halve the response being measured. The term inhibition denotes how much of the control response was suppressed. A word on the Km: it is the substrate concentration at which the rate is half of its maximum.

Data set [1] deals with TB formation (bupropion carbonyl reduction); carbonyl reductase (menadione), aldo-ketoreductase (flufenamic acid). Description: in vitro. As to conditions: baboon (Papio cynocephalus), liver microsomes, probe bupropion 30 µM (≈Km).
Data set [2] relates to EB formation (bupropion carbonyl reduction); carbonyl reductase (menadione), aldo-ketoreductase (flufenamic acid). Description: in vitro. As to conditions: baboon (Papio cynocephalus), placental microsomes, probe bupropion 30 µM (≈Km).
Data set [3] concerns TB formation (bupropion carbonyl reduction); carbonyl reductase (menadione), aldo-ketoreductase (flufenamic acid). Put plainly: in vitro. Conditions: baboon (Papio cynocephalus), placental microsomes, probe bupropion 30 µM (≈Km).
For data set [4], the target named is carbonyl-reducing enzymes of baboon hepatic microsomes. Format: biochemical. Conditions: read-out: IC50 (TB formation, hepatic microsomes); n = 3.
In data set [5] the target is carbonyl-reducing enzymes of baboon placental microsomes. The format is biochemical. Conditions: read-out: IC50 (TB formation, placental microsomes).
For data set [6] the target is unchanged. Format: biochemical. Conditions: read-out: IC50 (EB formation, placental microsomes).
Data set [7] has as its system OH-BUP formation by baboon hepatic microsomes.
Data set [8] is described as follows: Biotransformation of bupropion by baboon hepatic microsomes. As to conditions: female, baboon (Papio cynocephalus), liver microsomes, pH 7.4, apparent Km. (In general: Liver microsomes are vesicles of endoplasmic reticulum, rich in cytochrome P450 enzymes.)
The test system of data set [9] is baboon hepatic microsomes. The data set is described as above.
The nature of data set [10]: Biotransformation of bupropion by baboon placental microsomes. Conditions: baboon (Papio cynocephalus), pH 7.4, apparent Km.
Data set [11] deals with TB and EB formation by baboon hepatic microsomes. As to conditions: hepatic microsomes 1 mg/ml, bupropion 30 µM, 40 min; menadione 100µM, 18β-GA 0.1µM, flufenamic acid 5µM, barbital, 4-methylpyrazole, dicumarol 500µM.
For data set [12], the system named is TB and EB formation by baboon placental microsomes. As to conditions: placental microsomes 1 mg/ml, bupropion 30 µM, 40 min; menadione 100µM, 18β-GA 0.1µM, flufenamic acid 5µM, barbital, 4-methylpyrazole, dicumarol 500µM.
Data set [13] deals with EB formation (bupropion carbonyl reduction); aldo-ketoreductase (flufenamic acid). Description: in vitro. Conditions: baboon (Papio cynocephalus), liver microsomes, probe bupropion 30 µM (≈Km).

On to `CC1=CC(=O)c2ccccc2C1=O` [menadione], for which the 50% inhibitory concentration (IC50) at 40 min in data set [1] was 47 µM; in data set [2] it was 30.3 µM; in data set [3], 27.9 µM.
Take `CC1(C)[C@@H](O)CC[C@]2(C)[C@H]3C(=O)C=C4[C@@H]5C[C@@](C)(C(=O)O)CC[C@]5(C)CC[C@@]4(C)[C@]3(C)CC[C@@H]12` [18β-GA, 18β-glycyrrhetinic acid]: the IC50 was determined as 15 nM in data set [4], 25 nM in data set [5] and 22 nM in data set [6].
For `C=C(C)[C@@H]1CCC2=CC(=O)C[C@@H](C)[C@]2(C)C1` [(+)-nootkatone], in [7], the inhibition was 10 to 15%.
As for `CC(NC(C)(C)C)C(=O)c1cccc(Cl)c1` (stereo not shown) [bupropion], the Km at 30 min in data set [8] (hydroxylation of bupropion to OH-BUP, bupropion 10–400µM) is 36 ± 6 µM; in data set [8] (reduction of bupropion to EB) it was 32 ± 3 µM; in data set [8] (reduction of bupropion to TB), 28 ± 2 µM. Further, in [9], the “Vmax, EB formation” value is on record as 46 ± 8 pmol mgprotein^−1 min^−1. Besides, the “Vmax, TB formation” value in data set [9] is listed as 116 ± 19 pmol mgprotein^−1 min^−1. Besides, the results for the Km at 40 min in data set [10] (reduction of bupropion to EB) and in [10] (reduction of bupropion to TB) were 32 ± 14 µM and 20 ± 14 µM, respectively.
For the compound `CCC1(CC)C(=O)NC(=O)NC1=O` [barbital], in [11], the “inhibition of EB formation” value is reported as “did not affect” and the “inhibition of TB formation” value is listed as “did not affect”. In data set [12], the “inhibition of EB formation” value is on record as “did not affect” and the “inhibition of TB formation” value is “did not affect”.
As for `CC1(C)[C@@H](O)CC[C@]2(C)[C@H]3C(=O)C=C4[C@@H]5C[C@@](C)(C(=O)O)CC[C@]5(C)CC[C@@]4(C)[C@]3(C)CC[C@@H]12` [18β-glycyrrhetinic acid], in data set [11], the “inhibition of TB formation” value is on record as 80%. For the same compound, in [12], the “inhibition of EB formation” value turned out to be 80% and the “inhibition of TB formation” value stood at 80%.
With `O=C(O)c1ccccc1Nc1cccc(C(F)(F)F)c1` [flufenamic acid], the IC50 at 40 min in data set [13] was 7.7 µM; in data set [1], 11.4 µM; in [2] it was 5.6 µM; in data set [3] it was 9.9 µM. Besides, the inhibition at 40 min in data set [1], in data set [2] and in [3] was 40% throughout.
